In patent US20090131329A1, “Treatment for allograft rejection” (priority 2007, published 2009):

Key:
[1] = system: lung allograft (BN donor into F344 recipient); assay: Macroscopic findings of the allograft on day 7; format: in vivo, rat; details: controls: complete consolidation without aeration
Procedure: Transplant Model. Rat left-lung transplantation was performed in a RT1 (MHC) incompatible donor-recipient combination from a BN donor into a F344 recipient. Complete graft rejection in this severely mismatched combination would be expected histologically and radiographically on day 7 postoperatively. The orthotopic left-lung transplantation procedure used in this study was a modification of the ‘cuff’ technique for vascular anastomosis (Mizuta et al., 1989). In brief, the lung grafts were flushed and immersed in ice-cold normal saline solution before implantation. Cuffs with internal diameters of 1.65 mm and 2.20 mm for pulmonary arterial and venous anastomosis, respectively, were used. The left main bronchus was anastomosed using 8-0 prolene running sutures. In rats, radiographic assessment of a left-lung transplantation graft can be obscured by the right lung. Therefore, a postcaval lobectomy on the recipient's right lung was performed immediately after implantation so as to facilitate radiographic assessment of the left-lung allograft. […] Experimental groups. Recipient animals were divided into 4 groups (Table 1). Animals from group A (early administration; n=6) received 0.5 ml of phosphate-buffered saline (PBS) solution containing a 10.0 mg/kg concentration of antileukinate intramuscularly 24 hours before (day −1) and immediately after transplantation (day 0). […]

[2] = system: neutrophils in the lung allograft; assay: Number of neutrophils infiltrated into lung grafts; format: in vivo, rat; details: day 7
Procedure: Transplant Model. Rat left-lung transplantation was performed in a RT1 (MHC) incompatible donor-recipient combination from a BN donor into a F344 recipient. Complete graft rejection in this severely mismatched combination would be expected histologically and radiographically on day 7 postoperatively. The orthotopic left-lung transplantation procedure used in this study was a modification of the ‘cuff’ technique for vascular anastomosis (Mizuta et al., 1989). In brief, the lung grafts were flushed and immersed in ice-cold normal saline solution before implantation. Cuffs with internal diameters of 1.65 mm and 2.20 mm for pulmonary arterial and venous anastomosis, respectively, were used. […] Acute rejection was evaluated histologically and assigned a rejection score (RS) based on the clinical international working formulation: IWF grade 0, no significant abnormality; grade 1, scattered infrequent perivascular mononuclear infiltration; grade 2, frequent perivascular mononuclear infiltration; grade 3, extension of mononuclear infiltration into alveolar septum/space; and grade 4, diffuse perivascular, interstitial, and air space infiltration of mononuclear cells. The number of neutrophils was counted in a blinded fashion in 10 random fields per slide at ×1000 magnification. […] The data were expressed as mean±standard deviation. […]

[3] = system: lung allograft rejection (BN donor into F344 recipient); assay: Histological evaluation of acute rejection (IWF rejection score) of rat lung allografts on day 7; format: in vivo
Procedure: Methods. Orthotopic left lung allotransplantation was performed from Brown Norway (donor) to Fisher 344 (recipient) rats. The role of activated neutrophils in the development of allograft rejection is believed to be biphasic. Therefore, specific CXC receptor inhibition was used with antileukinate in two dosing regimens. Recipients were allocated into 4 groups: A (early administration: n=6) received two doses of antileukinate (a hexapeptide), 10.0 mg/kg intramuscularly 24 hours before and immediately after transplantation, B (continuous administration: n=8) animals continuously received antileukinate intraperitoneally (10.0 mg/kg/day) for 7 days after surgery. Experimental groups A or B were compared with their individual control that received saline alone (Cont-A and Cont-B). The progression of rejection was assessed radiographically. Each animal was sacrificed on day 7 for histologic evaluation of allograft rejection based on pathologic rejection grade. Transplant Model. Rat left-lung transplantation was performed in a RT1 (MHC) incompatible donor-recipient combination from a BN donor into a F344 recipient. Complete graft rejection in this severely mismatched combination would be expected histologically and radiographically on day 7 postoperatively. […]

[4] = system: lung allograft rejection (BN donor into F344 recipient); assay: Radiographic evaluation (aeration score) of transplanted lungs; format: in vivo, rat; details: for aeration score (AS) of representative chest radiograph: day 7
Procedure: Methods. Orthotopic left lung allotransplantation was performed from Brown Norway (donor) to Fisher 344 (recipient) rats. The role of activated neutrophils in the development of allograft rejection is believed to be biphasic. Therefore, specific CXC receptor inhibition was used with antileukinate in two dosing regimens. Recipients were allocated into 4 groups: A (early administration: n=6) received two doses of antileukinate (a hexapeptide), 10.0 mg/kg intramuscularly 24 hours before and immediately after transplantation, B (continuous administration: n=8) animals continuously received antileukinate intraperitoneally (10.0 mg/kg/day) for 7 days after surgery. Experimental groups A or B were compared with their individual control that received saline alone (Cont-A and Cont-B). The progression of rejection was assessed radiographically. Each animal was sacrificed on day 7 for histologic evaluation of allograft rejection based on pathologic rejection grade. Transplant Model. Rat left-lung transplantation was performed in a RT1 (MHC) incompatible donor-recipient combination from a BN donor into a F344 recipient. Complete graft rejection in this severely mismatched combination would be expected histologically and radiographically on day 7 postoperatively. The orthotopic left-lung transplantation procedure used in this study was a modification of the ‘cuff’ technique for vascular anastomosis (Mizuta et al., 1989). In brief, the lung grafts were flushed and immersed in ice-cold normal saline solution before implantation. Cuffs with internal diameters of 1.65 mm and 2.20 mm for pulmonary arterial and venous anastomosis, respectively, were used. The left main bronchus was anastomosed using 8-0 prolene running sutures. In rats, radiographic assessment of a left-lung transplantation graft can be obscured by the right lung. Therefore, a postcaval lobectomy on the recipient's right lung was performed immediately after implantation so as to facilitate radiographic assessment of the left-lung allograft. […] Experimental groups. Recipient animals were divided into 4 groups (Table 1). Animals from group A (early administration; n=6) received 0.5 ml of phosphate-buffered saline (PBS) solution containing a 10.0 mg/kg concentration of antileukinate intramuscularly 24 hours before (day −1) and immediately after transplantation (day 0). The control group against group A (Cont-A) received 0.5 ml of PBS in a similar fashion. Allograft recipients from group B (continuous administration; n=8) were given continuous antileukinate administration intraperitoneally for 7 days after transplantation, starting immediately after surgery using a micro-osmotic pump which was implanted into the peritoneal cavity two hours before lung transplantation. Antileukinate was released into the recipient's peritoneal cavity continuously at a dose of 10.0 mg/kg/day from days 0 to 7. Animals from Cont-B served as the control group against group B receiving the same amount of PBS without antileukinate in the same manner. Implantation of micro-osmotic pumps for groups B and Cont-B. Micro-osmotic pumps (model 2001; Alzet Corp., distributed by Charles River Laboratories, Sulzfeld, Germany) were used for intraperitoneal delivery of antileukinate. […] Transplanted lungs were serially assessed every other day by chest roentgenogram under spontaneous ventilation with halothane for sedation. […] Briefly, it was evaluated and graded 0 for an opaque lung, and up to 6 for a normal-appearing lung. […]

[5] = group B (continuous administration)

Substance: Ac-RRWWCR-NH2 [antileukinate]
- macroscopic finding of the allograft ([1]; group A (early administration)): macroscopically adequate ventilation
- macroscopic finding of the allograft [1, 5]: macroscopically adequate ventilation
- neutrophil count in the graft ([2]; group A: 10.0 mg/kg im day -1 and day 0, Cont-A 55.7±10.0, p=0.093): 34.8±28.7 /10HPFs
- neutrophil count in the graft ([2]; group B: continuous ip 10.0 mg/kg/day, Cont-B 47.9±18.4, p=0.046): 32.1±9.6 /10 HPFs
- rejection score (RS) of representative allograft ([3]; group B (continuous administration), day 7, representative histology): 1
- histologic rejection score (IWF), mean±standard deviation ([3]; group B: continuous ip 10.0 mg/kg/day days 0 to 7, n=8, day 7, Cont-B 3.3±0.5, p=0.018, scale 0-4): 2.1±1.0
- aeration score versus control at each time point ([4]; group A (early administration) versus Cont-A): No significant differences
- aeration score (AS) of representative chest radiograph ([4]; group A (early administration)): 6
- aeration score versus control at each time point ([4]; group B (continuous administration) versus Cont-B): No significant differences
- aeration score (AS) of representative chest radiograph [4, 5]: 5
- aeration score (AS) on day 7, mean±standard deviation ([4]; group B: continuous ip 10.0 mg/kg/day, Cont-B 1.6±1.3, p=0.16, score 0=opaque to 6=normal-appearing lung): 2.6±2.1
